Experimental data as given in ChEMBL document CHEMBL1149051, “Isolation of flavins from the Amazonian shrub Faramea guianesis” (1994).

Columns and labels:
Format in all cases: functional
Leishmania amazonensis [1] = experiment: Antileishmanial activity against Leishmania amazonensis H142 Guianese amastigotes in BALB/c mouse macrophages assessed as inhibition of infection at 0.05 mg/ml relative to control
Leishmania amazonensis [2] = experiment: Antileishmanial activity against Leishmania amazonensis H142 Guianese amastigotes in BALB/c mouse macrophages assessed as survival of peritoneal macrophages at 0.25 mg/ml relative to control
Leishmania amazonensis [3] = experiment: Antileishmanial activity against Leishmania amazonensis H142 Guianese amastigotes in BALB/c mouse macrophages assessed as inhibition of infection at 0.02 mg/ml relative to control
Leishmania amazonensis [4] = experiment: Antileishmanial activity against Leishmania amazonensis H142 Guianese amastigotes in BALB/c mouse macrophages assessed as inhibition of infection at 0.04 mg/ml relative to control

Oc1ccc(C2CCc3c(O)cc(O)cc3O2)cc1 (centres undefined)
inhibition at 50 µg/mL (Leishmania amazonensis [1]): 57%
survival at 250 µg/mL (Leishmania amazonensis [2]): 0%
inhibition at 20 µg/mL (Leishmania amazonensis [3]): 100%
inhibition at 40 µg/mL (Leishmania amazonensis [4]): 100%
